The values that follow come from patent US20180273528A1 (LES LABORATOIRES SERVIER, priority 2015, published 2018).

By IC50 is commonly meant the point on the concentration scale where inhibition reaches its midpoint.

This assay addresses DYRK1A (Homo sapiens, UniProt Q13627). Put plainly: Cellular DYRK1 autophosphorylation assay in U2-OS cells. The arrangement: full-length, wild-type human DYRK1A (NM_001396) with an HA tag; expressed in transfected cells; host or cells: human U2-OS osteosarcoma cells, transient transfection of a pcDNA3.1 plasmid. The settings on record: U2-OS cells transfected with HA-tagged human DYRK1A, 5 hours exposure; read-out: IC50 (μM) P-Ser520-Dyrk1A -Cell assay. In kind it is cell-based. In outline: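 U2-OS cells treated with a compound concentration range for 5 h. Phospho-Ser520-DYRK1A measured by western blot densitometry or Mesoscale ELISA. IC50 from dose-response curves; for blots, ratio of phospho-Ser520 to total DYRK1A signal.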
Turning to `Cc1nc2ccc(-c3cc(N)nc(N)c3)nc2n1C1CC(F)C1` (stereo not shown) [Example 103, 4-[3-(3-fluorocyclobutyl)-2-methyl-3H-imidazo[4,5-b]pyridin-5-yl]pyridine-2,6-diamine], the IC50 was found to be 0.014 µM.

With `Cc1nc2ccc(-c3cc(N)nc(N)c3)nc2n1CCCC(F)(F)F` [Example 71, 4-[2-methyl-3-(4,4,4-trifluorobutyl)-3H-imidazo[4,5-b]pyridin-5-yl]pyridine-2,6-diamine], the IC50 was determined as 0.047 µM.

With `Cc1nc2ccc(-c3cc(N)nc(N)c3)nc2n1C[C@@H](C)Oc1ccccc1` (single isomer, unassigned) [Example 106], the IC50 came to 0.073 µM.

For `Cc1nc2ccc(-c3cc(N)nc(N)c3)nc2n1Cc1ccoc1` [Example 42, 4-[3-(furan-3-ylmethyl)-2-methyl-3H-imidazo[4,5-b]pyridin-5-yl]pyridine-2,6-diamine], the IC50 amounted to 0.045 µM.

Consider `CCn1c(C)nc2ccc(-c3cc(N)nc(N)c3)nc21` [Example 154, 4-(3-ethyl-2-methyl-3H-imidazo[4,5-b]pyridin-5-yl)pyridine-2,6-diamine], for which the IC50 turned out to be 0.02 µM.

As for `Cc1nc2ccc(-c3cc(N)nc(N)c3)nc2n1C1CC(F)(F)C1` [Example 101, 4-[3-(3,3-difluorocyclobutyl)-2-methyl-3H-imidazo[4,5-b]pyridin-5-yl]pyridine-2,6-diamine], the IC50 is 0.006 µM.

Consider `Cc1nc2ccc(-c3cc(N)nc(N)c3)nc2n1C1CC1` [Example 9, 4-(3-cyclopropyl-2-methyl-3H-imidazo[4,5-b]pyridin-5-yl)pyridine-2,6-diamine], for which the IC50 turned out to be 0.09 µM.
